Source: patent US4683221A, “Lymphocyte-activating polypeptides” (Scripps Clinic and Research Foundation, priority 1986, dated 1987)
Ends that are not written are not given here.

What was measured:
Assay type in all cases: cell-based
[1] = test system: mouse spleen cells; assay: Polyclonal antibody response assay (Ig secretion measured by ELISA); settings: C57BL/6 spleen cells, 5 days; equimolar amounts of polypeptide, 1.5 mg/ml of p23 as standard
Description: This assay measures the activity of a polypeptide in potentiating an in vitro polyclonal antibody response using mouse spleen cells.
For the generation of immunoglobulin (Ig) secretion response, spleen cells from inbred male 8-15 week old C57BL/6 mice (The Jackson Laboratory, Bar Harbor, ME) were suspended in RPMI 1640 medium (M.A. Bioproducts, Walkersville, MD) supplemented with 2 millimolar (mM) L-glutamine, one percent BME vitamins (GIBCO, Grand Island, NY), 5×10^-5 molar (M) 2-mercaptoethanol, 7.5 percent fetal calf serum (FCS;GIBCO), and 0.001 percent gentamicin (Schering Corp., Kenilworth, NJ). Cells (6×10^5) in 0.2 milliliters (ml) of the supplemented medium were added to flat-bottomed microtiter plate wells (No. 3596: Costar, Cambridge, MA). Cultures were established in triplicate, and a polypeptide-containing composition was added in a volume of 50 microliters per well (ul/well).
To establish comparison between polypeptides of different lengths, equimolar amounts of polypeptide were used, with 1.5 milligrams per milliter (mg/ml) of the 23-residue polypeptide corresponding in sequence to positions 335-357 of the human IgGl myeloma protein as standard. […] Supernatants from triplicate cell culture wells were harvested, pooled, centrifuged to remove cells and stored at -20° C. Concentrations of Ig in the supernatants were determined by the ELISA assay described hereinbelow.
The ELISA utilized to measure polyclonal activation was a so-called "sandwich" assay in which the assayed entity, mouse Ig molecules, are bound to solid phase-bound anti-mouse Ig antibodies and then bound by indicator (alkaline phosphatase)-linked anti-mouse Ig antibodies.
(B) 100 Microliters of various dilutions of either the Ig standard or culture supernatants were then admixed in PBS-Tween. […]
Each well then received 100 ul of 1 mg p-nitrophenyl phosphate (Sigma Chemical Co., St. Louis, MO) in 0.05 M carbonate, pH 9.8. The reaction was stopped with 50 ml of 0.3 N NaOH, and the light absorbance at 410 nanometers (nm) was measured by using a Dynatech model MR600 ELISA reader. […]

[2] = test system: human plastic-adherent monocytes; assay: Prostaglandin E secretion (radioimmune assay); settings: 25 ug/ml of p23 or an equimolar amount of another polypeptide, 24 hours; initial data
Description: (§1) The cell lines used in these studies were: (1) murine plastic-adherent macrophages; (2) human plastic-adherent monocytes; and (3) the murine macrophage-like cell line denominated P388.D1 [Snyderman et al., J. Immunol., 119, 2060 (1977)]. […] Thereafter, the cell culture supernatant was assayed for the presence of a prostaglandin E using a commercially available radioimmune assay (Seragen).

[3] = test system: murine macrophage-like cell line denominated P388.D1; assay: Prostaglandin E secretion (radioimmune assay); settings: 25 ug/ml of p23 or an equimolar amount of another polypeptide, 24 hours; initial data
Description: as §1

[4] = test system: murine plastic-adherent macrophages; assay: Prostaglandin E secretion (radioimmune assay); settings: 25 ug/ml of p23 or an equimolar amount of another polypeptide, 24 hours; initial data
Description: as §1

Substance	Ig Found (amount of polyclonal Ig molecules found in the assay) [1]	secretion of a prostaglandin E into the culture medium [2]	secretion of a prostaglandin E into the culture medium [3]	secretion of a prostaglandin E into the culture medium [4]
LPPSREE [I-51(a), Leu-Pro-Pro-Ser-Arg-Glu-Glu]	10.2 µg/mL	incapable of inducing	incapable of inducing	incapable of inducing
QVYTLPPSREE [I-51(c)]	11.7 µg/mL	incapable of inducing	incapable of inducing	incapable of inducing
YTLPPSREE [I-51(b)]	10.7 µg/mL	incapable of inducing	incapable of inducing	incapable of inducing
